# Experimental data published in patent publication US10638754B2, “Methods of attracting Drosophila suzukii using acetoin blend” (The United States of America, as Represented by the …, priority 2016, dated 2020).
# Columns and labels:
# D. suzukii [1] = test: preliminary field test with baited traps, 2014; assay type: in vivo, Drosophila suzukii; settings: for Mean ± SD (SWD captured): Oct. 17 to Oct. 24, 2014, 3 replicates; for Total no. SWD captured: Oct. 17 to Oct. 24, 2014, Beltsville, 3 replicates
# Protocol: (§1) Field test: Commercially-available Victor® yellowjacket and flying insect traps (Great Lakes IPM Inc., Vestaburg, Mich.) filled with ˜300 mL of tap water containing a surfactant (Seventh Generation™ natural dish liquid—free and clear, Shoppers Food and Pharmacy, College Park, Md., 4 mL/gallon) as a drowning solution were used in all field tests at the Beltsville Agricultural Research Center-West, Beltsville, Md. (10300 Baltimore Ave., Beltsville, Md.) and at the blueberry field at Butler's Orchard (22222 Davis Mill Rd, Germantown, Md.). Unless otherwise indicated, pure chemical (individual or blend, 1 mL) was loaded onto a cotton ball held within a polypropylene flex micro-centrifuge tube (1.5 mL Eppendorf micro-centrifuge tube, VWR International, Radnor, Pa.) and the lid of the tube was then closed. Tubes filled only with a cotton ball were used as blank controls. The micro-centrifuge tube lure was opened and the lid was snapped into one of four holes on the cap of the Victor® trap, leaving the three remaining holes to serve as entrances for attracted insects. At the Beltsville Agricultural Research Center, traps were hung from the branches of trees on the edge of a small woodlot in blocks consisting of 3-5 treatments and 1 blank control with the traps spaced approximately 5 m apart within a group. The treatments were randomly arranged at different positions within the block and blocks were separated by 10-20 m. At the blueberry field in Butler's Orchard, traps were hung from the branches of blueberry bushes, deployed in blocks consisting of 3 treatments with the traps spaced approximately 5 m apart in a group. The traps were randomly arranged at different positions within the block and blocks were separated by 10-20 m.
# The preliminary field tests were conducted at the Beltsville Agricultural Research Center during Oct. […] In 2015 and 2016, three additional treatments were formulated: treatment 14 ((2-components, including acetoin (AT) and ethyl octanoate (EO) in 1:1 ratio), treatment 16 (single-component, acetoin (AT)), and treatment 17 (single-component, ethyl octanoate (EO)). The rest of the compounds, including ethanol (EtOH) (10 mL) and acetic acid (AA) (1 mL), were added into drowning water and evaluated as individual attractant or synergistic attractive agent whenever needed. In 2016, ACV (300 mL, Essential Everyday®, 5% acidity, Shoppers Food and Pharmacy, College Park, Md.) and a commercially-available Scentry® SWD lure (Great Lakes IPM Inc., Vestaburg, Mich.) were used as standard lures for SWD attraction activity comparison. […] In addition, ethyl acetate (EA) (5 mL) and phenethyl alcohol (PE) (1 mL) were added to the drowning solution and evaluated as individual attractants or synergistic attractive agents. […] Flies were counted in the laboratory.
# D. suzukii [2] = test: laboratory two-choice bioassay (treatment vs. blank control); assay type: in vivo, Drosophila suzukii; settings: for attraction against blank control: 20 μL standard dose, FIG. 3D, 3E; for D. suzukii that made choice: 20 μL, FIG. 3E; for attraction compared to a blank control: 50 μL total volume, N=15, FIG. 3C
# Protocol: Laboratory behavioral bioassay: To identify the key components for D. suzukii attraction from the apple juice 7-components blend, a two-choice laboratory bioassay (testing chemical or chemical blend vs. blank control) was used and different combinations of 7-components were evaluated. A complete test apparatus consisted of a plastic cup containing two trap tubes with two lure vials, and a water wick (FIG. 2). The plastic cups were clear, cylindrical polypropylene food containers (946 mL, diameter 114 mm, height 127 mm, Paper Mart, CA). […] The polystyrene trap tubes (95 mm×28.5 mm, same as those used in insect rearing) were labeled “T” for treatment and “B” for blank control, respectively, and were then given the appropriate lure. Lures were either tested chemical/chemical blends (unless otherwise indicated, 20 μL pure individual or blend) loaded onto a small cotton ball held within a small polyethylene lure vial (26 mm×8 mm×1.5 mm thickness, Just Plastic Ltd., Norwich, UK) or blank controls of plain cotton or cotton with solvent (in dose response trials) held in the same type of small lure vial. Each lure vial (open lid) was placed vertically within its trap tube and then the top of each trap tube was sealed with Parafilm® (Pechiney plastics packaging Inc. Menasha, Wis.) leaving only a 4 mm diameter hole in the center to provide an entrance for attracted flies. Each pair of loaded trap tubes were then placed vertically on opposite sides of the test cups with the entrance holes facing upwards. A water wick consisting of a glass scintillation vial (20 mL, VWR, PA) filled with deionized water and plugged with a cotton ball was laid on the bottom of the plastic cup to serve as a water source for the flies during the experiment (FIG. 2). Flies were immobilized using a CO2 stream and 10 were transferred into each testing apparatus. The fully-assembled test apparatus cups were then covered with their ventilated lids. All assays were conducted in a fume hood (120-cm-length×60-cm-width×70-cm-height) using new lures and young flies (2-8 days post-eclosion) under 25° C., 60% RH, and a 16:8 hour (L:D) photoperiod. Mixed-sex D. suzukii were used in bioassays unless stated otherwise, and all flies within and outside treatment and control trap tubes were counted and sexed after 48 hours.
# All statistical comparisons were considered for significance at α=0.05.
# D. suzukii [3] = test: field tests in 2015, baited traps; assay type: in vivo, Drosophila suzukii; settings: for attraction of D. suzukii in the field: traps, Beltsville, late fall 2015, FIG. 4-6
# Protocol: as §1
# The preliminary field tests were conducted at the Beltsville Agricultural Research Center during Oct. 17 to 24, 2014, using six different lures: (1) apple juice blend (treatment 1, 7-components based on apple juice fermentation products (FIG. 1), including isobutanol (IB):2-methyl butanol (2MB):3-methyl butanol (3MB):ethyl hexanoate (EH):acetoin (AT):ethyl octanoate (EO):methyl benzoate (MB) in natural ratios of 4:7:7:0.3:1:0.3:2) (v/v)), (2) raspberry blend (11-components blend, including butyl acetate:hexanal:2-heptanone:3-methyl-butanol:trans-2-hexenal:3-methyl-2-butyl acetate:2-heptanol:hexanol:cis-3-hexenol:6-methyl-5-hepten-2-ol:linalool; obtained from Sigma-Aldrich; mixed into an 11-component blend in natural ratios of 1:36:3:5:10:2:7:8:9:2:8 (v/v), respectively))(Abraham, J. et al., Environ. Entomol., 44 (2): 356-367 (2015)), (3) single component (2-methyl butanol (2MB)), (4) 3-methyl butanol (3MB), (5) binary components blend ((2MB+3MB in 1:1 ratio)), and (6) blank control. In 2015 and 2016, three additional treatments were formulated: treatment 14 ((2-components, including acetoin (AT) and ethyl octanoate (EO) in 1:1 ratio), treatment 16 (single-component, acetoin (AT)), and treatment 17 (single-component, ethyl octanoate (EO)). The rest of the compounds, including ethanol (EtOH) (10 mL) and acetic acid (AA) (1 mL), were added into drowning water and evaluated as individual attractant or synergistic attractive agent whenever needed. In 2016, ACV (300 mL, Essential Everyday®, 5% acidity, Shoppers Food and Pharmacy, College Park, Md.) and a commercially-available Scentry® SWD lure (Great Lakes IPM Inc., Vestaburg, Mich.) were used as standard lures for SWD attraction activity comparison. The amount of AA in the drowning solution in each trap was increased from 1 mL to 15 mL to reach the same acidity (5%) with ACV. In addition, ethyl acetate (EA) (5 mL) and phenethyl alcohol (PE) (1 mL) were added to the drowning solution and evaluated as individual attractants or synergistic attractive agents. Lure dispenser tubes and trap drowning solutions with captured insects were collected and replaced every week unless otherwise indicated. Flies were counted in the laboratory.
# [4] = lure release rate from micro-centrifuge tube dispensers; assay type: physicochemical; settings: for first order rate constant k of desorption: 1 mL loading, micro-centrifuge tube dispenser, fume hood
# Protocol: Lure Release Rate: Release rates of three different kinds of attractants, including acetoin (AT), ethyl octanoate (EO), and a blend of AT and EO (ratio=1:1), were measured under controlled conditions in a laboratory fume hood. Each attractant (1 mL) was loaded onto cotton balls held in open micro-centrifuge tubes (1.5 mL, VWR International, Radnor, Pa.). Fifteen of these micro-centrifuge tubes (five of each tested attractant) were suspended on hooks in a fume hood (temperature: 20-25° C., face velocity: 129 feet/min). Each tube was weighed every 24-h or 72-h (weekend) and the amount of attractant residue was calculated and recorded over a period of two weeks.
# D. suzukii [5] = test: field tests in 2016, baited traps; assay type: in vivo, Drosophila suzukii; settings: Nov.-Dec. 2016, FIG. 7-11
# Protocol: (§2) Field test: Commercially-available Victor® yellowjacket and flying insect traps (Great Lakes IPM Inc., Vestaburg, Mich.) filled with ˜300 mL of tap water containing a surfactant (Seventh Generation™ natural dish liquid—free and clear, Shoppers Food and Pharmacy, College Park, Md., 4 mL/gallon) as a drowning solution were used in all field tests at the Beltsville Agricultural Research Center-West, Beltsville, Md. (10300 Baltimore Ave., Beltsville, Md.) and at the blueberry field at Butler's Orchard (22222 Davis Mill Rd, Germantown, Md.). […]
# (§3) The preliminary field tests were conducted at the Beltsville Agricultural Research Center during Oct. […] In 2015 and 2016, three additional treatments were formulated: treatment 14 ((2-components, including acetoin (AT) and ethyl octanoate (EO) in 1:1 ratio), treatment 16 (single-component, acetoin (AT)), and treatment 17 (single-component, ethyl octanoate (EO)). The rest of the compounds, including ethanol (EtOH) (10 mL) and acetic acid (AA) (1 mL), were added into drowning water and evaluated as individual attractant or synergistic attractive agent whenever needed. In 2016, ACV (300 mL, Essential Everyday®, 5% acidity, Shoppers Food and Pharmacy, College Park, Md.) and a commercially-available Scentry® SWD lure (Great Lakes IPM Inc., Vestaburg, Mich.) were used as standard lures for SWD attraction activity comparison. […]
# other D. spp. = test: field tests in 2015, baited traps, non-target catch; assay type: in vivo; settings: EtOH combined with the AT+AA blend; field 2015; FIG. 4
# Protocol: as §2, §3
smiles,measurement,setting,value
"CCC(C)CO (stereo not shown) [2MB, 2-methyl-1-butanol]",Mean ± SD (SWD captured),D. suzukii [1],1.00 ± 1.00c
same,Total no. SWD captured,D. suzukii [1],3
same,attraction against blank control,D. suzukii [2]; 48 h,repellent effect
same,D. suzukii that made choice,D. suzukii [2]; 48 h,37%
"CC(C)CCO [3MB, 3-methyl-1-butanol]",Mean ± SD (SWD captured),D. suzukii [1],3.00 ± 1.00c
same,Total no. SWD captured,D. suzukii [1],9
"CC(=O)O [AA, acetic acid]",attraction compared to a blank control,D. suzukii [2],not attractive
same,attraction of D. suzukii in the field,D. suzukii [3],inactive by itself
"CC(=O)C(C)O (stereo not shown) [AT, 3-hydroxy-2-butanone]",attraction against blank control,D. suzukii [2]; 48 h,elicited attraction
same,attraction against blank control,"D. suzukii [2]; 48 h, listed as Acetoin",moderate activity
same,attraction of D. suzukii in the field,D. suzukii [3],significantly more attractive than EO
same,"time to release 50% (half-life of dispenser, t1/2=0.693/k)",[4],~48 h
same,first order rate constant k of desorption,[4],0.316 day⁻¹
"CCOC(C)=O [EA, ethyl acetate]",attraction of D. suzukii in the field,D. suzukii [5],not attractive in the field
"CCCCCCCC(=O)OCC [EO, ethyl octanoate]",attraction against blank control,D. suzukii [2]; 48 h,most attractive component
same,D. suzukii that made choice,D. suzukii [2]; 48 h,96%
same,Mean ± SD (D. suzukii captured in tubes),"D. suzukii [2]; 50 μL loading, 5 replicates of 10 flies, 48 h",9.80 ± 0.45a
same,Total no. captured,"D. suzukii [2]; 50 μL loading, 5 replicates, 50 flies tested in total, 48 h",49
same,effectiveness compared with other treatments,"D. suzukii [2]; 50 μL loading, N=5",captured significantly more D. suzukii than trap vials baited with treatment 1
same,"attraction against blank control, dose response","D. suzukii [2]; all doses from 0.3 μL to 300 μL, FIG. 3F",Significantly attractive activities
same,synergistic effect when combined with AA,D. suzukii [3]; field 2015,No synergistic effect
same,attraction of D. suzukii in the field,D. suzukii [3],did not show any activity at all
same,first order rate constant k of desorption,[4],0.049 day⁻¹
"CCO [EtOH, ethanol, reference compound]",attraction compared to a blank control,D. suzukii [2],significantly more attractive
same,SWD specificity of the blend,D. suzukii [3]; ethanol added to blend of AT and AA,~30%
same,attraction of D. suzukii in the field,D. suzukii [3],did not show significant activity
same,trap catch of non-target Drosophila,other D. spp.,attracted significantly more non-target Drosophila
"OCCc1ccccc1 [PE, phenethyl alcohol]",attraction of D. suzukii in the field,D. suzukii [5],did not show any activity
